Experimental data: publication PMC2806825, “The Expression Level of CB1 and CB2 Receptors Determines Their Efficacy at Inducing Apoptosis in Astrocytomas” (PLoS ONE, 2010)

Columns and labels:
CB1-low DBT cells [1] = test: Cell viability by WST-1 conversion, CB1-low DBT cells; assay type: cell-based, mouse
Procedure: (§1) Cells were expanded in 24-well plates (10^5 cells per well) in culture media (0.5 ml per well). Once they reached ∼70% confluence, they were rinsed with PBS and kept for an additional 24 hrs in serum-deprived media, at which time drugs or vehicle (DMSO, 0.1%) prepared in 50 µl serum-deprived media were directly added to each well. After 1, 3, or 5 days, cell viability was assessed using the Cell Proliferation Reagent WST-1 (Roche, Indianapolis, IN). Briefly, WST-1 reagent (50 µl) was added to each well for 4 hrs at 37°C with 5% CO2, and then WST-1 products were read at 450 nm using Packard SpectraCount™. Apoptosis was assessed using PI and annexin V (Pacific Blue™, Invitrogen). Briefly, cells were detached using trypsin, rinsed with 25°C PBS and resuspended to a density of 10^6 cells per ml of annexin-binding buffer (10 mM HEPES, 140 mM NaCl, 2.5 mM CaCl2, pH 7.4). PI (100 ng) and annexin V were added to 100 µl of cell suspension and incubated at 25°C for 30 min. Additional annexin-binding buffer was added (400 µl) and samples were sorted (10,000 events) on a LSR II flow cytometer (BD Biosciences, San Jose, CA) and the data analyzed using FlowJo (Tree Star, Inc., Ashland, OR).

wild type DBT cells = test: Cell viability by WST-1 conversion, wild type DBT cells; assay type: cell-based, mouse
Procedure: as §1

CB2 receptors [2] = target: T1, CB2 receptors (Mus musculus, UniProt P47936); test: AKT phosphorylation by Luminex multiplex immunoassay in CB2-expressing DBT subclones; assay type: cell-based; settings: for AKT phosphorylation: 1 µM
T1 construct: expressed in transfected cells
Procedure: (§2) Cells were expanded in Costar 24-well plates (10^5 cells per well) in culture media (0.5 ml per well). Once they reached ∼70% confluence, they were rinsed with PBS and kept for an additional 24 hrs in serum-deprived media, at which time point drugs or vehicle (DMSO, 0.1%) prepared in 50 µl serum-deprived media were directly added to each well for the corresponding number of minutes. We chose to directly administer the drugs to cell culture media instead of replacing the media to avoid stress-induced increases in basal kinase phosphorylation (Figure S1). To quantify Erk phosphorylation, reactions were stopped by removing the media and adding NuPAGE® LDS sample buffer (300 µl, Invitrogen, Carlsbad, CA) supplemented with 2-mercaptoethanol (1%). An aliquot of each sample (20 µl) was loaded onto NuPAGE® 4–12% Bis-Tris pre-cast gels (Inivtrogen) and electrophoresed according to the manufacturer's instructions. Gels were electrophoretically transferred to P-nitrocellulose membrane (Millipore, Billerica, MA) and blocked in LiCOR blocking buffer (LiCOR, Lincoln, NE) for 1 hr at 25°C. Membranes were then incubated in blocking buffer containing rabbit anti-phospho-p44/42 antibody (1∶1000, Cell Signaling Technology, Inc., Danvers, MA) for 1 hr at 25°C. Membranes were washed 3 times with Tris (50 mM) buffered saline containing 0.1% Tween-20 (TBS-T). Membranes were then incubated in blocking buffer containing donkey anti-rabbit antibody conjugated to IRDye 800 (1∶7500, Rockland Immunochemicals, Inc., Gilbertsville, PA) for 1 hr at 25°C. Membranes were washed 3 times with TBS-T. The fluorescence intensity of each band was quantified using the LiCOR Odyssey. To quantify AKT, JNK, p38 and GSKβ phosphorylation, reactions were stopped by addition of NP40 cell lysis buffer (100 µl, Invitrogen). Substrate phosphorylation was quantified using a Biosource Multiplex Bead Immunoassay kit (Invitrogen) according to the manufacturer's instructions and using a Luminex 100™ instrument (Luminex, Austin, TX).

CB2 receptors [3] = target: T1, CB2 receptors; test: ERK1/2 phosphorylation by Western blot in CB2-expressing DBT subclones; assay type: cell-based
Procedure: as §2

DBT cells = test: Cell viability by WST-1 conversion, wild type DBT cells and DBT subclones; assay type: cell-based, mouse
Procedure: as §1

GSK-3β phosphorylation = GSK-3β phosphorylation by Luminex multiplex immunoassay in DBT subclones; assay type: cell-based, mouse; settings: any of the subclones, throughout 30 min incubation; data not shown
Procedure: as §2, with “Gels were electrophoretically transferred to P-nitrocellulose membrane (Millipore, Billerica, MA) and blocked in LiCOR blocking buffer (LiCOR, Lincoln, NE) for 1 hr at 25°C. Membranes were then incubated in blocking buffer containing rabbit anti-phospho-p44/42 antibody (1∶1000, Cell Signaling Technology, Inc., Danvers, MA) for 1 hr at 25°C. Membranes were washed 3 times with Tris (50 mM) buffered saline containing 0.1% Tween-20 (TBS-T). Membranes were then incubated in blocking buffer containing donkey anti-rabbit antibody conjugated to IRDye 800 (1∶7500, Rockland Immunochemicals, Inc., Gilbertsville, PA) for 1 hr at 25°C.” left out

CB1-low DBT cells [4] = test: Apoptosis by propidium iodide and annexin V FACS, CB1-low DBT cells; assay type: cell-based, mouse; settings: 1 µM
Procedure: as §1

[5] = tested on: AKT phosphorylation in wild type DBT cells; test: AKT phosphorylation in wild type DBT cells; assay type: cell-based, mouse; settings: 1 µM
Procedure: as §2, with “Gels were electrophoretically transferred to P-nitrocellulose membrane (Millipore, Billerica, MA) and blocked in LiCOR blocking buffer (LiCOR, Lincoln, NE) for 1 hr at 25°C. Membranes were then incubated in blocking buffer containing rabbit anti-phospho-p44/42 antibody (1∶1000, Cell Signaling Technology, Inc., Danvers, MA) for 1 hr at 25°C. Membranes were washed 3 times with Tris (50 mM) buffered saline containing 0.1% Tween-20 (TBS-T). Membranes were then incubated in blocking buffer containing donkey anti-rabbit antibody conjugated to IRDye 800 (1∶7500, Rockland Immunochemicals, Inc., Gilbertsville, PA) for 1 hr at 25°C.” left out

[6] = tested on: ERK1/2 phosphorylation in wild-type DBT cells; test: ERK1/2 phosphorylation in wild-type DBT cells; assay type: cell-based, mouse; settings: 1 µM
Procedure: as §2, with “Gels were electrophoretically transferred to P-nitrocellulose membrane (Millipore, Billerica, MA) and blocked in LiCOR blocking buffer (LiCOR, Lincoln, NE) for 1 hr at 25°C. Membranes were then incubated in blocking buffer containing rabbit anti-phospho-p44/42 antibody (1∶1000, Cell Signaling Technology, Inc., Danvers, MA) for 1 hr at 25°C. Membranes were washed 3 times with Tris (50 mM) buffered saline containing 0.1% Tween-20 (TBS-T). Membranes were then incubated in blocking buffer containing donkey anti-rabbit antibody conjugated to IRDye 800 (1∶7500, Rockland Immunochemicals, Inc., Gilbertsville, PA) for 1 hr at 25°C.” left out

wild-type DBT cells [7] = test: Apoptosis by propidium iodide and annexin V FACS, wild-type DBT cells; assay type: cell-based, mouse; settings: 10 µM
Procedure: as §1

CB2 receptors [8] = target: T1, CB2 receptors; test: JNK and p38 phosphorylation by Luminex multiplex immunoassay in CB2-high DBT clone; assay type: cell-based; settings: 1 µM, lasted throughout 30 min incubation
Procedure: as §2, with “Gels were electrophoretically transferred to P-nitrocellulose membrane (Millipore, Billerica, MA) and blocked in LiCOR blocking buffer (LiCOR, Lincoln, NE) for 1 hr at 25°C. Membranes were then incubated in blocking buffer containing rabbit anti-phospho-p44/42 antibody (1∶1000, Cell Signaling Technology, Inc., Danvers, MA) for 1 hr at 25°C. Membranes were washed 3 times with Tris (50 mM) buffered saline containing 0.1% Tween-20 (TBS-T). Membranes were then incubated in blocking buffer containing donkey anti-rabbit antibody conjugated to IRDye 800 (1∶7500, Rockland Immunochemicals, Inc., Gilbertsville, PA) for 1 hr at 25°C.” left out

CB1 receptors = target: T2, CB1 receptors (Mus musculus, UniProt P47746); test: Radioligand saturation binding with [3H]CP-55,940 on membranes of CB1-expressing DBT subclones; settings: mean of 3–5 determinations
T2 construct: expressed in transfected cells
Procedure: (§3) Cells (10^6) were expanded in 10 cm dishes using 10 ml culture media. Once they reached ∼70% confluence, they were rinsed with PBS and kept for an additional 24 hrs in serum-deprived media, which is composed of DMEM+GlutaMAX™-I supplemented with fatty acid free bovine serum albumin (0.1%, BSA, Sigma-Aldrich, St. Louis, MO) and insulin-transferin-sodium selenite liquid media (1×, ITS, Sigma-Aldrich). For qPCR, media was removed and cells washed once with 10 ml PBS, then cells were scraped and total RNA isolated using RNeasy extraction kit (QIAGEN) according to the manufacturer's instructions. The following primer and TaqMan probe sequences were generated using Primer Express (Perkin-Elmer Applied Biosystems, Foster City, CA): mCB1 forward, 5′-[…]-3′, reverse, 5′-[…]-3′, probe, 5′-([…])-3′; mCB2 forward, 5′-[…]-3′, reverse, 5′-[…]-3′, probe, 5′-([…])-3′. Total RNA from each sample (2.5 ng) was reverse transcribed in the same 10 µl quantitative PCR reaction mix using the Brilliant Single-Step Quantitative RT-PCR Core Reagent Kit (Stratagene, La Jolla, CA). Combined reactions were carried out on a Stratagene Mx3000P Real-Time Detection System using the following protocol: 30 min single-strand synthesis reaction at 45°C; 40-cycle, two-step PCR amplification (15 sec at 95°C followed by 1 min at 56°C). Duplicate reactions with and without reverse transcriptase were run for each sample. For radioligand binding, media was removed and cells washed once with 10 ml PBS. Cells were scraped in 1 ml buffer (50 mM Tris-HCl, 3 mM MgCl2, 1 mM EDTA, pH 7.4) and pulse homogenized 10 sec using PRO200 tissue homogenizer (PRO Scientific, Oxford, CT). Crude membrane preparations were generated by centrifugation of cell homogenates for 20 min at >10,000×g. Cell pellets were resuspended in buffer containing BSA (0.1%, fatty acid free) and 50 µg protein added to siliconized glass tubes for assay. […] Radioactivity on filters was measured using scintillation counter.

wild-type DBT cells [9] = test: Radioligand binding with [3H]CP-55,940 on wild-type DBT cells; parameters: species or system mouse
Procedure: as §3, with “56°C).” for “56°C). Duplicate reactions with and without reverse transcriptase were run for each sample. For radioligand binding, media was removed and cells washed once with 10 ml PBS. Cells were scraped in 1 ml buffer (50 mM Tris-HCl, 3 mM MgCl2, 1 mM EDTA, pH 7.4) and pulse homogenized 10 sec using PRO200 tissue homogenizer (PRO Scientific, Oxford, CT). Crude membrane preparations were generated by centrifugation of cell homogenates for 20 min at >10,000×g. Cell pellets were resuspended in buffer containing BSA (0.1%, fatty acid free) and 50 µg protein added to siliconized glass tubes for assay.”

CB2 receptors [10] = target: T1, CB2 receptors; test: Radioligand saturation binding with [3H]CP-55,940 on membranes of CB2-expressing DBT subclones; settings: mean of 3–5 determinations
Procedure: as §3

[11] = antagonist 3 µM added 10 min before CP, CB2 subclones

T1 sequence (P47936 whole entry): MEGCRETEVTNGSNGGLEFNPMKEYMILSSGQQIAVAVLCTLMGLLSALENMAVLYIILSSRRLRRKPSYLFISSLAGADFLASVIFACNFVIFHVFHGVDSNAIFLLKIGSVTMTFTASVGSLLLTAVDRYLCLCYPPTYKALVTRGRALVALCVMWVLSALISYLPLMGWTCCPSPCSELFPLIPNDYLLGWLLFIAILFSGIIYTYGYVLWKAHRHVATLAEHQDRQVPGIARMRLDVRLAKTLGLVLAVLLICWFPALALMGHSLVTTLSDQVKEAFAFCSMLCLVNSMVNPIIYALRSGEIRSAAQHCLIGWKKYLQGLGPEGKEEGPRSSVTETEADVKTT
T2 sequence (P47746 whole entry): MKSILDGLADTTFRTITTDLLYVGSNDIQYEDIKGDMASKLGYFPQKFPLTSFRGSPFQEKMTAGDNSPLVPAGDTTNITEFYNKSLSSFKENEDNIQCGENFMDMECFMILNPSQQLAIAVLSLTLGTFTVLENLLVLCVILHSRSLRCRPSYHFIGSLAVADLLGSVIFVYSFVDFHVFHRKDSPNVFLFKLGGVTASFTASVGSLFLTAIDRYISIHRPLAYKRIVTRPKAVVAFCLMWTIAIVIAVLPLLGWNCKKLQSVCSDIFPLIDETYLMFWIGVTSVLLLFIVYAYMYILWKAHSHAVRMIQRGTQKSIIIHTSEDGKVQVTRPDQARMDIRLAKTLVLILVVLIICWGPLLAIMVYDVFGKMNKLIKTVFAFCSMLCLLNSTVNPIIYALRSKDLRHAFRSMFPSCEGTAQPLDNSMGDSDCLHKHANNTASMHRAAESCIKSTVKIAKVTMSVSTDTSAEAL

Cc1c(C(=O)NN2CCCCC2)nn(-c2ccc(Cl)cc2Cl)c1-c1ccc(Cl)cc1 [SR141716A, 5-(4-chlorophenyl)-1-(2,4-dichlorophenyl)-4-methyl-N-(1-piperidyl)-1H-pyrazole-3-carboxamide]
Effect on 1 µM CP-55,940-induced killing (CB1-low DBT cells [1]; antagonist 5 µM pretreatment, CB1-low DBT cells): blocked | Effect on 10 µM CP-55,940-induced cell death (wild type DBT cells; antagonist 5 µM pretreatment, wild type DBT cells): did not affect

5- (4-chloro-3- methyl- phenyl)-1- [(4- methylphenyl)methyl]- N-(1,3,3- trimethylnorbornan- 2- yl)- pyrazole- 3- carboxamide [SR144528]
Effect on CP-55,940 (1 µM)-induced AKT phosphorylation (CB2 receptors [2]; [11]): antagonized | Effect on CP-55,940 (1 µM)-induced ERK1/2 phosphorylation (CB2 receptors [3]; [11]): significantly attenuated

(−)-cis-3-[2-hydroxy-4-(1,1-dimethylheptyl)phenyl]-trans-4-(3-hydroxypropyl) cyclohexanol [CP-55,940]
Cell death (WST-1) (CB1-low DBT cells [1]; 1 µM, CB1-low DBT subclone, five days after treatment): ~50% | EC50 (CB1-low DBT cells [1]; CB1-low DBT cells, Figure 3c, read-out: EC50 of cell killing (WST-1)): 560 nM | Cell death (WST-1) (DBT cells; 10 µM, wild type DBT cells and all six subclones, five days after treatment): 35–90% | Phosphorylation state of GSK-3β (GSK-3β phosphorylation): did not significantly affect | AKT phosphorylation (CB2 receptors [2]; CB2-high clone, during the entire 30 min incubation): above 250 % of basal | AKT phosphorylation (CB2 receptors [2]; CB2-high subclone): most pronounced increase | AKT phosphorylation (CB2 receptors [2]; CB2-low and CB2-mid subclones): small, but significant increase | Cell death by apoptosis (CB1-low DBT cells [4]; 3 days after treatment): 15% | Cell death by apoptosis (CB1-low DBT cells [4]; after five days): 48% | AKT phosphorylation [5]: did not increase | EC50 (wild type DBT cells; wild type DBT cells, Figure 3c, read-out: EC50 of cell death (WST-1)): 5000 nM | ERK1/2 phosphorylation [6]: did not affect | Cell death by apoptosis (wild-type DBT cells [7]; 3 days after treatment): 27% | Cell death by apoptosis (wild-type DBT cells [7]; after five days): 78% | ERK1/2 phosphorylation above vehicle-treated controls (CB2 receptors [3]; 1 µM, 3 min, CB2-low, CB2-mid, CB2-high subclones): significant increase | Time of peak of ERK1/2 phosphorylation (CB2 receptors [3]; 1 µM, CB2-expressing subclones): 3 min | Time of return of ERK1/2 phosphorylation to basal (CB2 receptors [3]; 1 µM, CB2-expressing subclones): 10 to 20 min | Phosphorylation state of JNK and p38 (CB2 receptors [8]): 150–170 % of basal

COc1cccc(-c2cc(=O)c3ccccc3o2)c1N [PD98059]
Effect on 1 µM CP-55,940-induced killing (CB1-low DBT cells [1]; inhibitor 10 µM pretreatment, CB1-low DBT cells): partially prevented | Effect on 10 µM CP-55,940-induced killing (wild type DBT cells; inhibitor 10 µM pretreatment, wild-type DBT cells): partially prevented

CCN(CC)CCCCN1c2ccccc2Oc2ccc(Cl)cc21.Cl [Inhibitor X]
Effect on killing by 1 µM CP-55,940 (WST-1) (DBT cells; 5 µM added 10 min before CP, DBT subclones normally resistant, 5 days): uncovered the ability of 1 µM CP-55,940 to kill | Effect by itself on cell viability (WST-1) (DBT cells; 5 µM, DBT subclones, 5 days): no effect

CCCCCCC(C)(C)c1ccc([C@@H]2C[C@H](O)CC[C@H]2CCCO)c(O)c1 [[^3H]CP-55,940]
Kd (CB1 receptors; CB1-high subclone E5): 0.7 nM | Kd (CB1 receptors; CB1-low subclone E3): 0.8 nM | Kd (CB1 receptors; CB1-mid subclone E7): 0.8 nM | Radioligand binding (wild-type DBT cells [9]): no binding | Kd (CB2 receptors [10]; CB2-high subclone 1D6): 0.6 nM | Kd (CB2 receptors [10]; CB2-low subclone 2G5): 0.8 nM | Kd (CB2 receptors [10]; CB2-mid subclone 2H1): 0.4 nM
